What was measured:
Format in all cases: in vivo, mouse
[1] = system: female homozygous klotho mutant mice; assay: Breeding results of female homozygous klotho mutant mice raised on feed; settings: ornithine in feed
From the text: Male homozygous klotho mutant mice were raised on the feed of Comparative Example 3 and female homozygous klotho mutant mice were raised on the feed of Example 7 or the feed of Comparative Example 2, both to the age of 8 weeks. These male and female mice were mated and their breeding results were compared between the female group fed on the feed of Example 7 and that fed on the feed of Comparative Example 2. During the mating period, the males were transferred into the cages of females and so fed on the same feeds as the respective females.

[2] = system: male homozygous klotho mutant mice; assay: Male klotho mutant homozygotes raised on feed: indices of premature aging-like syndrome (blood sugar, serum inorganic phosphorus, body weight); settings: ornithine in feed
From the text: (§1) Mice carrying a klotho mutation were bred by mating a pair of heterozygous klotho mutant mice provided by Tumor Biology, Pathology, Kyoto University Graduate School of Medicine. Klotho mutant homozygotes, klotho mutant heterozygotes and wild-type mice were confirmed by PCR. Male klotho mutant homozygotes were raised on the feed prepared in Example 1 or the feed prepared in Comparative Example 1 and were intermittently weighed (number of animals: 4/group). The mice were given the powdery feed through a commercially available powder feeder (KN-675 No. 4, Natsume Seisakusho) and filtered running water, both ad libitum. The mice were raised in an SPF (specific pathogen-free) room kept at a temperature of 24±1° C. and a humidity of 55±10%. The expression level of Klotho protein was expressed as relative values based on the average value of the group raised on the feed of Comparative Example 1 up to the age of 6 weeks as 100.

[3] = system: female klotho mutant homozygotes; assay: Life span of female klotho mutant homozygotes raised on feed; settings: ornithine in feed
From the text: Female klotho mutant homozygotes obtained by the same method as in Example 3 were raised on the feed of Example 1, the feed of Comparative Example 1, the feed of Example 2 or the feed of Comparative Example 2 (number of animals: 4/group) to observe their life span. The number of mice that died before reaching the age of 11 weeks was 0 and 2 in the groups fed on the feed of Example 1 and the feed of Comparative Example 1, respectively, and was 1 and 2 in the groups fed on the feed of Example 2 and the feed of Comparative Example 2, respectively.

[4] = system: female klotho mutant homozygotes; assay: Body weight of female klotho mutant homozygotes raised on feed; settings: female homozygous individuals, ornithine in feed
From the text: as §1, with “The mice were raised in an SPF (specific pathogen-free) room kept at a temperature of 24±1° C. and a humidity of 55±10%.” left out
Female klotho mutant homozygotes obtained by the same method as in Example 3 were raised on the feed of Example 1 or the feed of Comparative Example 1 in the same manner as in Example 3 up to the age of 8 weeks, and their body weight was measured. […]
Female klotho mutant homozygotes obtained by the same method as in Example 3 were raised on the feed of Example 2 or the feed of Comparative Example 2 in the same manner as in Example 3 up to the age of 6 weeks, and their body weight was measured. […]

[5] = system: Klotho protein; assay: Expression level of Klotho protein in the kidneys of male klotho mutant homozygotes raised on feed; settings: male homozygous klotho mutant mice, ornithine in feed
From the text: The determination of Klotho protein can be carried out by methods such as immune precipitation, Western blotting and enzyme-linked immunosorbent assay (ELISA) using an anti-Klotho protein antibody, and the determination of mRNA for the klotho gene can be carried out by methods such as Northern blot hybridization and reverse transcription-polymerase chain reaction (RT-PCR). The determination methods and methods for obtaining tissue samples, klotho gene, Klotho protein, probe DNA, primers, antibodies, etc. to be used in the determination are described in WO 98/29544.
as §1, with “The mice were raised in an SPF (specific pathogen-free) room kept at a temperature of 24±1° C. and a humidity of 55±10%.” left out

NCCC[C@H](N)C(=O)O [ornithine]
Effect on breeding result [1]: improved the breeding result
Effect on premature aging-like syndrome [2]: inhibitory effects on premature aging-like syndrome
Effect on life span [3]: effective in prolonging life span
Effect on body weight [4]: weight-increasing effect
Effect on expression level of kidney Klotho protein [5]: effective in raising the expression level of kidney Klotho protein
